The subject of test [1] is native C. elegans L-AChR. The conditions noted are these: cited from earlier work.
In test [2] the target is T1, Hco-L-AChR-2 (Hco-UNC-38, Hco-UNC-63, Hco-UNC-29.1) (Haemonchus contortus, UniProt D6MYE9+D6MYF3+D6MYF4).
T1 sequence (D6MYF3 20-512): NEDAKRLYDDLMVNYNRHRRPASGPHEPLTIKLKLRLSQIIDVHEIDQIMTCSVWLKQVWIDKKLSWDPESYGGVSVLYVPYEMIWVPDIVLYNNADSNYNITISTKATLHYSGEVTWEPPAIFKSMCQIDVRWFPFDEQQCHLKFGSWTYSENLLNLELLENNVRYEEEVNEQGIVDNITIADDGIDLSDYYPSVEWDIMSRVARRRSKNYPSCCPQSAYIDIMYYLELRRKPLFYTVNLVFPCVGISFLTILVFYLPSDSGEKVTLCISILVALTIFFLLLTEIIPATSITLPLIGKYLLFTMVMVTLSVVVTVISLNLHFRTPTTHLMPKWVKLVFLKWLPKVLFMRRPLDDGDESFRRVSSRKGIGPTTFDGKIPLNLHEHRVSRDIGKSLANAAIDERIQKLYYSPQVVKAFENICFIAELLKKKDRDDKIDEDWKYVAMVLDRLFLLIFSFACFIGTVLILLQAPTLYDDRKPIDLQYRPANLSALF
T1 sequence (D6MYF4 22-504): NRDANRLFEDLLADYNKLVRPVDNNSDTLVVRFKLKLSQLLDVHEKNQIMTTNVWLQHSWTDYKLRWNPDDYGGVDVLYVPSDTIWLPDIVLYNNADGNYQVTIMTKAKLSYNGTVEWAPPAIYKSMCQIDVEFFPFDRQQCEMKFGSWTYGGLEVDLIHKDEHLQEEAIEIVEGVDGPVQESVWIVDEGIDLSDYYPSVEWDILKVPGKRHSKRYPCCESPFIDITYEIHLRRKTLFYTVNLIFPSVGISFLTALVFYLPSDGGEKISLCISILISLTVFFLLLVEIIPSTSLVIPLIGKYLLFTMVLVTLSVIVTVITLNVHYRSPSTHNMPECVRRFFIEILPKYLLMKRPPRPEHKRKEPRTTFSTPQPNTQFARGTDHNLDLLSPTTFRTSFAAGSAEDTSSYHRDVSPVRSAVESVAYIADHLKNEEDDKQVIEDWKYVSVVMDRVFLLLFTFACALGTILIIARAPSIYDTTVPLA
T1 sequence (D6MYE9 21-498): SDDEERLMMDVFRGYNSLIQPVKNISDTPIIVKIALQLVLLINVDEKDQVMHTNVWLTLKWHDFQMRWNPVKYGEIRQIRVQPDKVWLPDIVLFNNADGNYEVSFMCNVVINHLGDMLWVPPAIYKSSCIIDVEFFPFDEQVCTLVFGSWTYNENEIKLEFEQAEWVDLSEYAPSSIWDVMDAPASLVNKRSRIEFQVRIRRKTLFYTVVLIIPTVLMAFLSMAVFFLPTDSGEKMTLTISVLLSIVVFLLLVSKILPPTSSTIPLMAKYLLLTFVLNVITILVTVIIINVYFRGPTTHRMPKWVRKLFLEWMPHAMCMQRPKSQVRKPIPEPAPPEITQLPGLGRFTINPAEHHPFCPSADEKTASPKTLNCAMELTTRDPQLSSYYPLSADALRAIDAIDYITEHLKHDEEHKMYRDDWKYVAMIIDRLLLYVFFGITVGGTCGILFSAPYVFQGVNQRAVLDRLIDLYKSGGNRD
Put plainly: Two-electrode voltage-clamp on Xenopus oocytes expressing Hco-L-AChR-2. Format: cell-based. The conditions noted are these: for Response to agonist: 100 μM agonist. The text has this: H. contortus and P. equorum acr-26 and acr-27 cDNAs were PCR-amplified using primers containing a restriction site in order to be sub-cloned into the expression vector pTB207 that is suitable for in vitro transcription. Primers are listed in S3 Table. The resulting plasmids were linearized with the NheI restriction enzyme (Fermantas) and used as templates for cRNA synthesis using the T7 mMessage mMachine kit (Ambion). Xenopus laevis ovaries were obtained from the University of Rennes, France (CRB Xenope) and defolliculated using 2 mg/ml collagenase type II (Gibco) in the incubation solution containing: 100 mM NaCl, 2 mM KCl, 1.8 mM CaCl2.2H2O, 1 mM MgCl2.6H2O, 5 mM HEPES, 2.5 mM C3H3NaO3, pH 7.5, supplemented with penicillin 100 U/mL and streptomycin 100 μg/mL). The oocytes were injected in the animal pole with a total volume of 36 nL of cRNA mix containing 50 ng/μL of each cRNA in RNase-free water using the Drummond nanoject II microinjector. Microinjected oocytes were kept at 20°C in incubation medium for 4 days to allow the receptors expression. Two-electrode voltage-clamp recordings were carried out using an Oocyte Clamp OC-725C amplifier (Warner instrument) in oocytes being voltage-clamped at -60mV. All agonist preparations were prepared with recording buffer (100 mM NaCl, 2.5 mM KCl, 1 mM CaCl2.2H2O, 5 mM HEPES, pH 7.3). Currents were recorded and analyzed using the pCLAMP 10.4 package (Molecular Devices).
Supplementary file ppat.1005267.s003.tif: S3 Fig Pharmacological profiles of Hco-L-AChR-1 and Hco-L-AChR-2. […] The bars indicate the time period of the agonist application. Functional expression of Hco-L-AChR-1 requires the co-expression of Hco-UNC-38; Hco-UNC-63; Hco-UNC-29.1 and Hco-ACR-8 AChR subunits with the ancillary proteins Hco-RIC-3.1; Hco-UNC-50 and Hco-UNC-74 whereas Hco-L-AChR-2 requires the co-expression of Hco-UNC-38; Hco-UNC-63 and Hco-UNC-29.1 AChR subunits with the ancillary proteins Hco-RIC-3.1; Hco-UNC-50 and Hco-UNC-74. (C) Scatter plot (mean ± SEM) of normalized currents elicited by 100 μM Mor on Hco-26/27, Hco-L-AChR-1 and Hco-L-AChR-2. […]

Counter-ions that a name gives are not always drawn.

On to `c1ccc([C@H]2CN3CCSC3=N2)cc1` [Lev, (-)-tetramisole hydrochloride], for which the EC50 (as a rule, the concentration that produces a half-maximal response) in test [1] is 10 µM. For `Cc1ccsc1/C=C/C1=NCCCN1C` [Mor, morantel], in test [2], the response was half-maximal at 3.2 ± 1.2 µM (EC50) and the “Response to agonist” value is “less activated”. Consider `CN1CCCN=C1/C=C/c1cccs1` [Pyr, pyrantel], for which the “Response to agonist” value in test [2] is reported as “highly responsive”.

The record behind these values is article PMC4666645 (PLoS Pathogens, 2015).
